These results are taken from patent US10913727B2, “Modulators of the integrated stress pathway” (Calico Life Sciences LLC, priority 2016, dated 2021).

The test relates to HEK293T cells carrying the ATF4 luciferase reporter. The experiment in a line: ATF4-Luc assay, in vitro model of Vanishing Cell White Matter Disease (VWMD). The test is classed as cell-based. Conditions: Homo sapiens, HEK-293T, 1 μg/mL tunicamycin, 7 hours, One Glo luminescence. Put shortly: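 Stable HEK293T line with human ATF4 5′-UTR–firefly luciferase reporter treated with 1 μg/mL tunicamycin plus 200 nM compound for 7 h. Luminescence read; EC50 derived.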
As for `O=C(COc1ccc(Cl)c(F)c1)NC12CCC(Nc3nccn4cnnc34)(CC1)[C@H](O)C2` [Compound 464, 2-(4-chloro-3-fluorophenoxy)-N-{(3R)-3-hydroxy-4-[([1,2,4]triazolo[4,3-a]pyrazin-8-yl)amino]bicyclo[2.2.2]octan-1-yl}acetamide], the EC50 was over 2000 nM.
Turning to `Cc1c(C(=O)NC23CCC(NC(=O)COc4ccc(Cl)c(F)c4)(CC2)CC3O)cnn1-c1ccccc1` (centres unmarked) [Compound 221, N-{4-[2-(4-chloro-3-fluorophenoxy)acetamido]-2-hydroxybicyclo[2.2.2]octan-1-yl}-5-methyl-1-phenyl-1H-pyrazole-4-carboxamide], the half-maximal effective concentration (EC50) was in the range of 1000 to 2000 nM.
On to `COc1cccc(F)c1C(=O)NC12CC(NC(=O)COc3ccc(Cl)c(F)c3)(C1)C2` [Compound 528, N-{3-[2-(4-chloro-3-fluorophenoxy)acetamido]bicyclo[1.1.1]pentan-1-yl}-2-fluoro-6-methoxybenzamide], for which the EC50 is over 2000 nM.
As for `Cc1cc(C(=O)NC23CC(NC(=O)COc4ccc(Cl)c(Cl)c4)(C2)C3)sn1` [Compound 617, N-{3-[2-(3,4-dichlorophenoxy)acetamido]bicyclo[1.1.1]pentan-1-yl}-3-methyl-1,2-thiazole-5-carboxamide], the EC50 is under 50 nM.
Take `O=C(COc1ccc(Cl)c(F)c1)NC12CCC(NC(=O)c3ccc(OCC(F)(F)F)nc3)(CC1)CC2O` (centres unmarked) [Compound 579, N-{4-[2-(4-chloro-3-fluorophenoxy)acetamido]-3-hydroxybicyclo[2.2.2]octan-1-yl}-6-(2,2,2-trifluoroethoxy)pyridine-3-carboxamide]: the EC50 lay in the range of 50 to 250 nM.
The value for `CCc1ccnc(C(=O)NC23CC(NC(=O)COc4ccc(Cl)c(Cl)c4)(C2)C3)c1` [Compound 696, N-{3-[2-(3,4-dichlorophenoxy)acetamido]bicyclo[1.1.1]pentan-1-yl}-4-ethylpyridine-2-carboxamide] was 50 to 250 nM; that for `O=C(COc1ccc(Cl)c(F)c1)NC12CC(NC(=O)c3ccccn3)(C1)C2` [Compound 129, N-{3-[2-(4-chloro-3-fluorophenoxy)acetamido]bicyclo[1.1.1]pentan-1-yl}pyridine-2-carboxamide] was 50 to 250 nM.
In the case of `COc1cc(OC)cc(C(=O)NC23CC(NC(=O)COc4ccc(Cl)c(F)c4)(C2)C3)c1` [Compound 303, N-{3-[2-(4-chloro-3-fluorophenoxy)acetamido]bicyclo[1.1.1]pentan-1-yl}-3,5-dimethoxybenzamide], the EC50 was 1000 to 2000 nM.
As to `O=C(COc1ccc(Cl)c(F)c1)NC12CC(NC(=O)c3ccnc(C(=O)NCCO)c3)(C1)C2` [Compound 288, N^4-{3-[2-(4-chloro-3-fluorophenoxy)acetamido]bicyclo[1.1.1]pentan-1-yl}-N^2-(2-hydroxyethyl)pyridine-2,4-dicarboxamide], the EC50 was over 2000 nM.
For `CCc1nc(C)c(C(=O)NC23CC(NC(=O)COc4ccc(Cl)c(F)c4)(C2)C3)o1` [Compound 906, N-{3-[2-(4-chloro-3-fluorophenoxy)acetamido]bicyclo[1.1.1]pentan-1-yl}-2-ethyl-4-methyl-1,3-oxazole-5-carboxamide], the EC50 lay within 250 to 1000 nM.
Consider `O=C(COc1ccc(Cl)c(F)c1)NC12CCC(NC(=O)c3ccc(C(F)F)cn3)(CC1)C[C@@H]2O` [Compound 752, N-{(3S)-4-[2-(4-chloro-3-fluorophenoxy)acetamido]-3-hydroxybicyclo[2.2.2]octan-1-yl}-5-(difluoromethyl)pyridine-2-carboxamide], for which the EC50 is under 50 nM.
As to `O=C(COc1ccc(Cl)c(F)c1)NC12CC(NC(=O)c3cncc(CO)c3)(C1)C2` [Compound 453, N-{3-[2-(4-chloro-3-fluorophenoxy)acetamido]bicyclo[1.1.1]pentan-1-yl}-5-(hydroxymethyl)pyridine-3-carboxamide], the EC50 fell in the range of 1000 to 2000 nM.
As to `CCn1ccc(C(=O)NC23CC(NC(=O)COc4ccc(Cl)c(F)c4)(C2)C3)cc1=O` [Compound 405, N-{3-[2-(4-chloro-3-fluorophenoxy)acetamido]bicyclo[1.1.1]pentan-1-yl}-1-ethyl-2-oxo-1,2-dihydropyridine-4-carboxamide], the EC50 was over 2000 nM.
Under `COc1ccc(C(=O)NC23CC(NC(=O)COc4ccc(Cl)c(F)c4)(C2)C3)cc1F` [Compound 530, N-{3-[2-(4-chloro-3-fluorophenoxy)acetamido]bicyclo[1.1.1]pentan-1-yl}-3-fluoro-4-methoxybenzamide] stands 250 to 1000 nM.
Under `O=C(COc1ccc(Cl)c(F)c1)NC12CCC(NC(=O)c3ccc(F)cc3)(CC1)[C@@H](O)C2` [Compound 489, N-{(2S)-4-[2-(4-chloro-3-fluorophenoxy)acetamido]-2-hydroxybicyclo[2.2.2]octan-1-yl}-4-fluorobenzamide] stands 50 to 250 nM; under `COc1c(F)cccc1C(=O)NC12CC(NC(=O)COc3ccc(Cl)c(F)c3)(C1)C2` [Compound 547, N-{3-[2-(4-chloro-3-fluorophenoxy)acetamido]bicyclo[1.1.1]pentan-1-yl}-3-fluoro-2-methoxybenzamide], 1000 to 2000 nM; under `O=C(COc1ccc(Cl)c(F)c1)NC12CC(NC(=O)c3cnc(C(F)(F)F)nc3)(C1)C2` [Compound 133, N-{3-[2-(4-chloro-3-fluorophenoxy)acetamido]bicyclo[1.1.1]pentan-1-yl}-2-(trifluoromethyl)pyrimidine-5-carboxamide], 1000 to 2000 nM.
Turning to `O=C(COc1ccc(Cl)c(F)c1)NC12CC(NC(=O)c3cnc(C(F)F)s3)(C1)C2` [Compound 443, N-{3-[2-(4-chloro-3-fluorophenoxy)acetamido]bicyclo[1.1.1]pentan-1-yl}-2-(difluoromethyl)-1,3-thiazole-5-carboxamide], the EC50 is under 50 nM.
As to `O=C(COc1ccc(Cl)c(F)c1)NC12CCC(NC(=O)c3cnc4ccccc4n3)(CC1)C[C@@H]2O` [Compound 667, N-{(3S)-4-[2-(4-chloro-3-fluorophenoxy)acetamido]-3-hydroxybicyclo[2.2.2]octan-1-yl}quinoxaline-2-carboxamide], the EC50 was under 50 nM.
Under `CC(=O)Nc1cccc(C(=O)NC23CC(NC(=O)COc4ccc(Cl)c(F)c4)(C2)C3)n1` [Compound 884, 6-acetamido-N-{3-[2-(4-chloro-3-fluorophenoxy)acetamido]bicyclo[1.1.1]pentan-1-yl}pyridine-2-carboxamide] stands 250 to 1000 nM.
For `Cc1csc(C(=O)NC23CC(NC(=O)COc4ccc(Cl)c(F)c4)(C2)C3)c1` [Compound 875, N-{3-[2-(4-chloro-3-fluorophenoxy)acetamido]bicyclo[1.1.1]pentan-1-yl}-4-methylthiophene-2-carboxamide], the EC50 was under 50 nM.
Consider `O=C(COc1ccc(Cl)c(F)c1)NC12CC(Nc3nccn4ncnc34)(C1)C2` [Compound 448, 2-(4-chloro-3-fluorophenoxy)-N-{3-[([1,2,4]triazolo[1,5-a]pyrazin-8-yl)amino]bicyclo[1.1.1]pentan-1-yl}acetamide], for which the EC50 was in the range of 1000 to 2000 nM.
For the compound `COCc1nc(C(=O)NC23CC(NC(=O)COc4ccc(Cl)c(Cl)c4)(C2)C3)cs1` [Compound 925, N-{3-[2-(3,4-dichlorophenoxy)acetamido]bicyclo[1.1.1]pentan-1-yl}-2-(methoxymethyl)-1,3-thiazole-4-carboxamide], the EC50 was under 50 nM.
The value for `Cc1nccnc1NC12CC(NC(=O)COc3ccc(Cl)c(F)c3)(C1)C2` [Compound 678, 2-(4-chloro-3-fluorophenoxy)-N-{3-[(3-methylpyrazin-2-yl)amino]bicyclo[1.1.1]pentan-1-yl}acetamide] was 1000 to 2000 nM; that for `CCc1csc(C(=O)NC23CC(NC(=O)COc4ccc(Cl)c(F)c4)(C2)C3)n1` [Compound 919, N-{3-[2-(4-chloro-3-fluorophenoxy)acetamido]bicyclo[1.1.1]pentan-1-yl}-4-ethyl-1,3-thiazole-2-carboxamide] was under 50 nM; that for `Cc1nccn1-c1ccccc1C(=O)NC12CC(NC(=O)COc3ccc(Cl)c(F)c3)(C1)C2` [Compound 883, N-{3-[2-(4-chloro-3-fluorophenoxy)acetamido]bicyclo[1.1.1]pentan-1-yl}-2-(2-methyl-1H-imidazol-1-yl)benzamide] was over 2000 nM.
As to `Cn1cc(C(=O)NC23CC(NC(=O)COc4ccc(Cl)c(F)c4)(C2)C3)ccc1=O` [Compound 818, N-{3-[2-(4-chloro-3-fluorophenoxy)acetamido]bicyclo[1.1.1]pentan-1-yl}-1-methyl-6-oxo-1,6-dihydropyridine-3-carboxamide], the EC50 was over 2000 nM.
Consider `O=C(COc1ccc(Cl)c(Cl)c1)NC12CC(NC(=O)c3cnc(-c4ccccc4)o3)(C1)C2` [Compound 740, N-{3-[2-(3,4-dichlorophenoxy)acetamido]bicyclo[1.1.1]pentan-1-yl}-2-phenyl-1,3-oxazole-5-carboxamide], for which the EC50 was under 50 nM.
For the compound `O=C(COc1ccc(Cl)c(Cl)c1)NC12CC(NC(=O)c3ccccn3)(C1)C2` [Compound 156, N-{3-[2-(3,4-dichlorophenoxy)acetamido]bicyclo[1.1.1]pentan-1-yl}pyridine-2-carboxamide], the EC50 is 50 to 250 nM.
`N#Cc1ccnc(C(=O)NC23CCC(NC(=O)COc4ccc(Cl)c(F)c4)(CC2)C(O)C3)c1` (centres unmarked) [Compound 932, N-{4-[2-(4-chloro-3-fluorophenoxy)acetamido]-3-hydroxybicyclo[2.2.2]octan-1-yl}-4-cyanopyridine-2-carboxamide]: the EC50 was in the range of 50 to 250 nM.
As to `CCc1noc(C(=O)NC23CCC(NC(=O)COc4ccc(Cl)c(F)c4)(CC2)C(O)C3)n1` (centres unmarked) [Compound 567, N-{4-[2-(4-chloro-3-fluorophenoxy)acetamido]-3-hydroxybicyclo[2.2.2]octan-1-yl}-3-ethyl-1,2,4-oxadiazole-5-carboxamide], the EC50 was 50 to 250 nM.
Consider `Cc1cc2c(NC34CC(NC(=O)COc5ccc(F)cc5)(C3)C4)nccn2n1` [Compound 639, 2-(4-fluorophenoxy)-N-{3-[(2-methylpyrazolo[1,5-a]pyrazin-4-yl)amino]bicyclo[1.1.1]pentan-1-yl}acetamide], for which the EC50 lay in the range of 50 to 250 nM.

As usually defined, the EC50 is the concentration at which the effect is half-maximal.
